Reference: patent US6271384A, “Self-assembled taxo-diterpenoid nanostructures” (The Scripps Research Institute, priority 1998, dated 2001)
Where a name gives a salt, the structure may show the parent alone. One block for each molecule: values may come before it.

Key:
[1] = Experimental: The solubility and partition coefficient data for 2 and taxol were determined using an HPLC method.
Solubility was found by forming a solution in water with the aid of sonication for five minutes, centrifugation of the samples, and injection of the supernatant. The values reported were normalized using calibration curves constructed for both compounds by preparing known concentrations in the range 1×10^-6 to 1×10^-3 M in methylene chloride and subjecting to HPLC analysis under the same conditions. […] Partition coefficients were determined by dissolving the compound in the organic phase, shaking the resulting solution with water for ten minutes, and analyzing each phase by HPLC as above.

[2] = tested on: immunoglobulins; assay: Displacement of the MPT group by immunoglobulins
Text: (§1) However, the release of taxol from taxol-2'-MPT can also be catalyzed by serum protein and by proteins having nucleophilic groups. […] Dialysis of the protein:taxol intermediate indicates a dissociation period of hours or days. Displacement of the MPT group by serum proteins seems to be specific for such serum proteins. […] The precise nature of the bonding between the protein and taxol has not been characterized. Scheme 2 illustrates alternative pathways for MPT release.

[3] = Self-assembly: optical density at 340 nm, light scattering and TEM; type: physicochemical
Text: Transmission electron microscopy (TEM) confirmed the presence of supramolecular structures in these solutions. […] It is likely that the long term stability of these solutions is due, at least in part, to stabilization provided by this structured environment.

[4] = tested on: A549 non-small cell lung adenocarcinoma xenograft; assay: Efficacy in lung tumor xenograft nude mouse model
[5] = tested on: leukemia, ovarian, lung, and breast carcinoma cells; assay: Cytotoxicity against a cell line panel (XTT)
[6] = Kinetics of taxol release / breakdown in plasma (HPLC); type: in vitro ADME, human; details: methylene chloride extraction, 25° C.
[7] = tested on: serum albumen; assay: Displacement of the MPT group by serum albumen
Text: as §1

[8] = tested on: serum protein; assay: Displacement of the MPT group by serum protein and dialysis of the protein:taxol intermediate
Text: as §1

[9] = tested on: tubulin; assay: Microtubule (tubulin) polymerization-depolymerization measurements; type: biochemical; details: for suppression of calcium chloride promoted depolymerization: 10^-6 M, CaCl2 0.25 mM, 1.0 mM GTP, 37° C.
Experimental: Tubulin polymerization-depolymerization measurements are illustrate in FIG. 3. Negative controls are shown with triangles; positive taxol controls are shown with diamonds; and taxol-2'-MPT, i.e., compound 2 is shown with dots.
More particularly, measurement were performed in 96 well plates at 37° C. following the protocol of R. Merlock and W. Wrasidlo (Analytical Biochemistry 1993, in press). Calcium chloride addition is indicated by the arrow. In each case, 1.0 mM GTP was used to promote the initial polymerization of tubulin. Negative control employed tubulin (1.0 mg/mL) alone, CaCl2 (0.25 mM) added after 20 minutes. Positive taxol control employed tubulin (1.0 mg/mL) with taxol (10^-6 M) and CaCl2 (0.25 mM) added after 20 minutes. The experimental taxol-2'-MPTemployed tubulin (1.0 mg/mL) with taxol-2'-MPT (10^-6) and CaCl2 (0.25 mM) added after 20 minutes. Turbidity was measured as optical density at 340 nm using a microplate reader (Molecular Devices Thermomax).

[10] = Stability measurements of taxol-2'-MPT by HPLC (solid state and aqueous media); type: physicochemical
Experimental: Due to a difference in retention time using our standard HPLC conditions (see FIG. 1) and differing ultraviolet absorption maxima (l280 /l254 =1.6 for 2 and 0.3 for 1), the stability of 2 was easily assayed by HPLC (FIG. 1). […] In phosphate buffered saline (PBS) or ammonium acetate-phosphate buffer systems of pH 6.0 to 7.3, 2 is stable at 25° C. for over 21 days. Taxol-2'-MPT (2) is, however, unstable in 5% HCl (pH 1.1) and brine.
Under these conditions 20% of total is recovered. More particularly, Taxol-2'-MPT (2) was dissolved in the aqueous system with the aid of sonication for five minutes. Aliquots were then removed at the times shown and partitioned into methylene chloride to quench the reaction. Samples were then analyzed using a Waters Maxima HPLC instrument equipped with an autoinjector (3.9×300 mm C18 column equipped with a precolumn. The flow rate was 1.5 mL/minute. The eluent gradient A-B extended over 30 minutes. "A" was 80% 80 mM ammonium acetate, pH 6.0. "B" was 100% methanol. An ultraviolet diode array detector was employed. The ratio of compound 2 (Rf 16.2 min.) to taxol (compound 1, Rf 16.8 min.) remaining was determined from the relative areas of the peaks after normalization with previously determined calibration curves.

[11] = tested on: non-serum proteins; assay: Displacement of the MPT group by non-serum proteins; details: tested non-serum proteins
Text: as §1

[12] = tested on: cervical carcinoma; assay: Cytotoxicity, cervical carcinoma (XTT); details: 72 hours
[13] = tested on: metastatic melanoma; assay: Cytotoxicity, metastatic melanoma (XTT); details: 72 hours
[14] = tested on: human leukemia; assay: Cytotoxicity, human leukemia (XTT); details: 72 hours

- degradation during solubility and partition studies [1]: No degradation
- displacement of MPT group by immunoglobulins [2]: particularly effective
- critical concentration (exponential increase in optical density; critical aggregation concentration) ([3]; OD at 340 nm): 400 µM
- diameter of helical fibrillar structures ([3]; TEM): ca. 80 Å
- helical twist ([3]; TEM): about 7
- length of helical fibrillar structures ([3]; TEM): up to 800 Å
- concentration above which buffered solutions exhibit haze and diffuse scattering ([3]; buffered solutions): greater than 1×10^-3 M
- conversion to taxol in vivo ([4]; inferred from xenograft results): converted rapidly to taxol in vivo
- time to complete conversion of 2 into taxol in plasma [6]: ≤ 10 min
- displacement of MPT group by serum albumen [7]: particularly effective
- dissociation period of protein:taxol intermediate ([8]; dialysis): hours or days
- conversion to taxol in assay buffer ([9]; buffered aqueous environment of this assay): not converted to taxol
- stability in 5% HCl ([10]; 5% HCl (pH 1.1)): unstable
- stability in brine ([10]; brine): unstable
- stability in phosphate buffered saline or ammonium acetate-phosphate buffer ([10]; pH 6.0 to 7.3, 25° C.): over 21 days
- stability in aqueous media at physiological pH and ion strength ([10]; physiological pH and ion strength): essentially completely stable
- displacement of MPT group by non-serum proteins [11]: seemed to lack this activity
Compound: CC(=O)O[C@H]1C(=O)[C@@]2(C)[C@H]([C@H](OC(=O)c3ccccc3)[C@]3(O)C[C@H](OC(=O)[C@H](Oc4cccc[n+]4C)[C@@H](NC(=O)c4ccccc4)c4ccccc4)C(C)=C1C3(C)C)[C@]1(OC(C)=O)CO[C@@H]1C[C@@H]2O [Compound 2, Taxol-2'-MPT (methylpyridinium tosylate)]
- solubility in aqueous systems relative to clinically relevant dosages [1]: higher than the clinically relevant dosages (3 to 30 mM)
- water solubility relative to taxol [1]: significantly more soluble in water than the parent taxol
- appearance of water solutions ([3]; water, all concentrations examined): optically clear at all concentrations examined
- control of tumor growth ([4]; I.P. day 1,3, and 7, 2 23.9 mg/kg, taxol 18.0 mg/kg, preliminary data): at least comparable to that of taxol
- cytotoxicity (discussion statement) [5]: lack of cytotoxicity
- differential cytotoxicity profile ([5]; 2 compared with taxol): similar, although some differences were noted
- displacement of MPT group / formation of protein:taxol intermediate ([8]; contacted with serum protein): observed to displace its MPT group and form a protein:taxol intermediate
- suppression of calcium chloride promoted depolymerization [9]: not by taxol-2'-MPT
- microtubule polymerization-depolymerization profile ([9]; compared with GTP-saline controls and taxol): very similar to GTP-saline controls and drastically different from taxol
- binding to tubulin ([9]; inferred from polymerization assay): does not appear to bind to tubulin in the manner of taxol
- stability in most aqueous media ([10]; most aqueous media): remarkably stable compound in most aqueous media
- taxol release in aqueous solutions ([10]; sterile water, pH 6.2 phosphate buffered saline or 5% dextrose, 25° C., 11 minutes): no taxol release is observed over a period of 11 minutes

Compound: CC(=O)O[C@H]1C(=O)[C@@]2(C)[C@H]([C@H](OC(=O)c3ccccc3)[C@]3(O)C[C@H](OC(=O)[C@H](O)[C@@H](NC(=O)c4ccccc4)c4ccccc4)C(C)=C1C3(C)C)[C@]1(OC(C)=O)CO[C@@H]1C[C@@H]2O [Taxol, taxol]
- cytotoxicity level, cervical carcinoma [12]: Extremely high cytotoxicity levels
- cytotoxicity level, metastatic melanoma [13]: Extremely high cytotoxicity levels
- cytotoxicity level, human leukemia [14]: Extremely high cytotoxicity levels
- suppression of calcium chloride promoted depolymerization [9]: suppressed by taxol
